≈ marks a conversion by molar mass, not a printed value. Where “and” joins values, the source holds several entries; their conditions need not be identical. Identical values can stand only once.
Legend:
Type in all cases: cell-based
Escherichia coli = assay: Broth microdilution MIC (CLSI), Escherichia coli; details: Escherichia coli
Outline: (§1)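 Test organisms were KPC-producing clinical isolates (some enriched for porin mutations), matched isolates that lost KPC plasmids, and engineered porin/efflux mutant strains. Susceptibility was measured by broth microdilution following CLSI methods, using panels prepared in-house.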

Klebsiella pneumoniae = assay: microbe, parasite or virus in culture; details: for MIC: Klebsiella pneumoniae
Outline: as §1

Enterococcus faecalis = assay: MIC, Enterococcus faecalis
Description: Bacterial isolates were subjected to broth microdilution susceptibility testing, performed according to Clinical and Laboratory Standards Institute (CLSI) methods ([46]), using panels prepared in-house. Meropenem was purchased from Sandoz, and all other antibiotics were from Sigma-Aldrich. Xeruborbactam was synthesized at Qpex Biopharma, San Diego, CA. Avibactam was purchased from eNovation Chemicals LLC, Bridgewater, NJ, USA; zidebactam was from MedKoo Biosciences, Inc., Morrisville, NC, and nacubactam was from Advanced ChemBlocks, Hayward, CA. Durlobactam was synthesized at Acme Bioscience, Palo Alto, CA, USA.

For `C[C@@H](O)[C@H]1C(=O)N2C(C(=O)O)=C(S[C@@H]3CN[C@H](C(=O)N(C)C)C3)[C@H](C)[C@H]12` [Meropenem], the MIC (Escherichia coli) was 0.03 µg/mL, the MIC (Escherichia coli; MG1655) was 0.03 µg/mL and 0.08 µM and the MIC (Escherichia coli; strain ECM6001, ΔacrB) was 0.03 µg/mL. For the same molecule, the MIC (Escherichia coli; strain ECM6502, marR (AcrAB overexpression)) was 0.06 µg/mL, the MIC90 (Klebsiella pneumoniae) was no more than 0.06 µg/mL and the MIC (Klebsiella pneumoniae; ATCC49816) was 0.03 µg/mL and 0.08 µM. For the same molecule, the MIC (Klebsiella pneumoniae; KPM2601 (KPC-3; ΔompK35), alone) was 32 µg/mL, the MIC (Klebsiella pneumoniae; KPM2631 (KPC-3; ompK36_fs ΔompK35), alone) was 256 µg/mL and the MIC (Klebsiella pneumoniae; KPM3532 (TolQ::M189K), alone) was 0.06 µg/mL. It also gave an MIC (Klebsiella pneumoniae; KPM3532, TolQ::M189K) of 0.06 µg/mL, an MIC (Klebsiella pneumoniae; KPM3534 (TolQ::S31F), alone) of 0.06 µg/mL and an MIC (Klebsiella pneumoniae; KPM3534, TolQ::S31F) of 0.06 µg/mL. For the same molecule, the MIC (Klebsiella pneumoniae; KPM4127 (KPM3532 TolQ::M189K/KPC-3), alone) was 32 µg/mL, the MIC (Klebsiella pneumoniae; KPM4128 (KPM3534 TolQ::S31F/KPC-3), alone) was 32 µg/mL and the MIC (Klebsiella pneumoniae; KPM4129 (KPM3532 TolQ::M189K/NDM-1), alone) was greater than 64 µg/mL. It also gave an MIC (Klebsiella pneumoniae; KPM4130 (KPM3534 TolQ::S31F/NDM-1), alone) greater than 64 µg/mL, an MIC (Klebsiella pneumoniae; KPM4235, TolQ::IP(183–1844)PR) of 0.06 µg/mL and an MIC (Klebsiella pneumoniae; KPM4236, TolQ::TAA at aa 103) of 0.06 µg/mL. For the same molecule, the MIC (Klebsiella pneumoniae; KPM4238, TolQ::S25F) was 0.06 µg/mL, the MIC (Klebsiella pneumoniae; KPM4239, TolQ::S28F) was 0.06 µg/mL and the MIC (Klebsiella pneumoniae; KPM4240, TolQ::S25Y) was 0.06 µg/mL. For the same molecule, the MIC (Klebsiella pneumoniae; no-plasmid strain KPM1026a) was 0.03 µg/mL, the MIC (Klebsiella pneumoniae; no-plasmid strain KPM1027) was 0.06 µg/mL and the MIC (Klebsiella pneumoniae; no-plasmid strain KPM1171) was 2 µg/mL. The MIC (Klebsiella pneumoniae; no-plasmid strain KPM2040) was 0.125 µg/mL, the MIC (Klebsiella pneumoniae; no-plasmid strain KPM2600) was 0.06 µg/mL and the MIC (Klebsiella pneumoniae; no-plasmid strain KPM2613) was 0.25 µg/mL. It also gave an MIC (Klebsiella pneumoniae; strain KPM2600, ΔompK35) of 0.06 µg/mL, an MIC (Klebsiella pneumoniae; strain KPM2613, ΔompK35 ompK36_2040) of 0.25 µg/mL and an MIC (Klebsiella pneumoniae; strain KPM2696, ΔacrB) of 0.03 µg/mL. The MIC (Enterococcus faecalis; efs003) was 2 µg/mL (≈ 5.22 µM), the MIC (Enterococcus faecalis; efs004) was 4 µg/mL (≈ 10.4 µM) and the MIC (Enterococcus faecalis; efs005) was 4 µg/mL (≈ 10.4 µM). The MIC (Enterococcus faecalis; efs006) was 2 µg/mL (≈ 5.22 µM), the MIC (Enterococcus faecalis; efs007) was 4 µg/mL (≈ 10.4 µM) and the MIC (Enterococcus faecalis; efs026) was 2 µg/mL (≈ 5.22 µM). The MIC (Enterococcus faecalis; efs071) was 4 µg/mL (≈ 10.4 µM), the MIC (Enterococcus faecalis; efs072) was 2 µg/mL (≈ 5.22 µM) and the MIC (Enterococcus faecalis; efs073) was 4 µg/mL (≈ 10.4 µM). For the same molecule, the MIC (Enterococcus faecalis; efs090) was 1 µg/mL (≈ 2.61 µM), the MIC (Enterococcus faecalis; efs091) was 1 µg/mL (≈ 2.61 µM) and the MIC (Enterococcus faecalis; efs092) was 8 µg/mL (≈ 20.9 µM). It also gave an MIC (Enterococcus faecalis; efs093) of 16 µg/mL (≈ 41.7 µM), an MIC (Enterococcus faecalis; efs094) greater than 32 µg/mL and an MIC (Enterococcus faecalis; efs095) of 4 µg/mL (≈ 10.4 µM). For the same molecule, the MIC (Enterococcus faecalis; efs096) was 4 µg/mL (≈ 10.4 µM).
